Experimental data taken from patent publication US20160374908A1, “SKIN CARE COMPOSITION AND METHODS OF USING THE SAME” (The Procter & Gamble Company, priority 2015, published 2016).

Key:
[1] = tested on: human neonatal keratinocytes; assay: Melanosome Uptake Assay; format: cell-based
Protocol: Carboxyfluorescein diacetate (“CFDA”) (available from Sigma, St. Louis, Mo.) labeled melanosomes were prepared by incubating CFDA dye in SKMEL-188 culture cells (available from Sloan Kettering Institute) for 2 days at 37° C. in a THERMO SCIENTIFIC FORMA brand CO2 incubator (available from Fisher Scientific, Waltham, Mass.). On day 3 of the test, melansomes were isolated from SKMEL-188 cells by step density centrifugation with sucrose solutions layered with different densities, which is well known in the art. Melanosomes were taken from the 1.6 M-2.0 M sucrose layers. The isolated melanosomes were placed in each well of a 6-well plate along with human neonatal keratinocytes (available from Thermo) (approximately 50,000 keratinocytes/well). 2 ml of the appropriate medium (i.e., the test composition, the positive control or the vehicle control) was added to each of the wells to produce […] (i.e., 3 replicates of each of three composition tested). The test composition was made by adding nicotinamide riboside chloride powder (available from Chromadex, Irvine, Calif.) to EPILIFE brand keratinocyte medium to produce a solution of 0.0025 w/v % nicotinamide riboside. The positive control was made by adding niacinamide to EPILIFE brand keratinocyte medium to produce a solution of 0.0025 w/v % niacinamide. Unmodified keratinocyte medium was used as a vehicle control. The resulting test plates were incubated for two days in EPILIFE brand keratinocyte medium. On day 6 of the test, the keratinocytes were detached from the plates using trypsin and fluorescent-label counted by flow cytometry using an LSRFortessa brand flow cytometer (available from Becton Dickinson, NJ). The percentage of cells that had fluorescence (from CFDA label) was used as a metric to measure incorporation of melanosome uptake. Keratinocytes containing detectable levels of CFDA were counted as a fraction of all keratinocytes passing through the flow cytometer (indicated as % uptake in Table 2). The higher the percentage, the higher level of melanosome uptake into the keratinocytes.

[2] = tested on: HMGB1 released from keratinocytes exposed to UVB; assay: In Vitro UV Stress Test (HMGB1 ELISA); format: cell-based, human; details: for amount of HMGB1 released compared to untreated UVB exposed cells: UVB exposed keratinocytes, 0.001 w/v %
Protocol: Human neonatal keratinocytes (available from Thermo) were placed in each well of 4 12-well plates. Each well also contained 2 ml of EPILIFE brand keratinocyte medium. The plates were incubated at 37° C. in a CO2 incubator until cell confluency reached 70%. At this point, the cells, except for the negative control, were exposed to 15 mJ/cm^2 UVB (i.e., UV radiation with a wavelength of from 315-280 nm) in a BIO-SUN brand UV irradiating system (available from Vilber Lourmat, France). After UVB exposure, the keratinocyte medium in each well was replaced with an appropriate medium (i.e., niacinamide medium, nicotinamide riboside medium or a control medium) to produce the test plates. The test plates were incubated for 24 hours at 37° C. in a CO2 incubator, after which the medium in each cell was removed and the HMGB1 level measured using a conventional HMGB1 ELISA kit (REF #ST51011, available from IBL International, Canada) according to the manufacturer's instructions. The test media were made by adding either niacinamide or nicotinamide riboside to EPILIFE brand keratinocyte medium to produce a 0.001 w/v % solution. The control medium was unmodified keratinocyte medium.

[3] = tested on: pigmented spots in facial skin; assay: Oral nicotinamide riboside, appearance of pigmented spots after cessation of the treatment period; format: in vivo; details: oral composition
Description: In some instances, the method herein includes identifying a target portion of facial skin in need of treatment and orally ingesting a safe and effective amount of nicotinamide riboside over the course of a multi-day, or multi-week, or multi-month, or multi-year treatment period. Nicotinamide riboside may be incorporated into a suitable oral composition. The target portion of facial skin is any portion of facial skin (e.g., periorbital, cheek, chin, perioral, nose, forehead, etc.) where improvement in the appearance of skin is desired (e.g., reduction in size and/or increase in lightness of hyperpigmented spot). […] In this way, the present compositions may be used as a preventative measure for skin pigmentation disorders. The oral composition may be ingested one time per day, two times per day, three times per day (e.g., around each meal), four times per day or more during the treatment period. The daily dosage of nicotinamide riboside may be greater than 100 mg, preferably greater than 250 mg, more preferably greater than 300 mg, most preferably greater than 400 mg or 500 mg. The weekly dosage may be greater than 2100 mg/week, 2800 mg/week, or 3500 mg/week. The daily dosage may be provided in a single unit dosage form (e.g., a single pill, capsule or tablet) or may be provided in smaller unit dosage forms if the oral composition is intended to be taken more than once per day. […]

Molecule | rate of melanosome uptake compared to the vehicle control ([1]; 0.0025 w/v %) | amount of HMGB1 released compared to untreated UVB exposed cells [2] | HMGB1 Released ([2]; UV exposure 15 mJ/cm^2 UVB, 0.001% in medium, 24 hours) | % Uptake ([1]; 0.0025 w/v % in keratinocyte medium, fraction of keratinocytes with detectable CFDA-labeled melanosomes, flow cytometry) | Rate of Melanosome Uptake Versus Control ([1]; 0.0025 w/v %, vehicle control = 100%) | time after cessation of the treatment period to regression to baseline in the appearance of the pigmented spots [3]
NC(=O)c1cccnc1 [Niacinamide, niacinamide, reference compound] | inhibit the rate of melanosome uptake | no significant effect | – | – | – | –
NC(=O)c1ccc[n+]([C@@H]2O[C@H](CO)[C@@H](O)[C@H]2O)c1.[Cl-] [Nicotinamide Riboside Chloride, nicotinamide riboside chloride] | – | – | 11.5 pg/mL | – | – | –
Nicotinamide riboside | increase the rate of melanosome uptake | released less HMGB1 | – | 67% | 186% | ≤ 2 weeks
